In ChEMBL document CHEMBL3879902, “Compounds and methods for kinase modulation, and indications thereof” (2012):

Experiments:
[1] = Aqueous solubility of the compound in simulated intestinal fluid at pH 4.5; assay type: ADME; settings: simulated gi fluid
[2] = Aqueous solubility of the compound in hepes buffer at pH 7.4; assay type: physicochemical
[3] = Aqueous solubility of the compound in simulated gastric fluid at pH 1.5; assay type: ADME; settings: simulated gi fluid
[4] = Aqueous solubility of the compound in simulated intestinal fluid at pH 6.8; assay type: ADME; settings: simulated gi fluid

solubility [1]	solubility [2]	solubility [3]	solubility [4]	Structure (SMILES)
Insoluble	Insoluble	Insoluble	Insoluble	CCCS(=O)(=O)Nc1ccc(F)c(C(=O)c2c[nH]c3ncc(-c4ccc(C(=O)NC5CC5)nc4)cc23)c1F
Insoluble	Soluble	Insoluble	Soluble	O=C(c1c(F)ccc(NS(=O)(=O)c2cc(F)ccc2F)c1F)c1c[nH]c2ncc(Cl)cc12
Soluble	Soluble	Soluble	Soluble	CCCS(=O)(=O)Nc1ccc(F)c(C(=O)c2c[nH]c3ncc(-c4cncnc4)cc23)c1F
Soluble	Soluble	Insoluble	Insoluble	CCCS(=O)(=O)Nc1ccc(F)c(C(=O)c2c[nH]c3ncc(-c4ccc(OCCN5CCCC5)nc4)cc23)c1F
Soluble	Soluble	Soluble	Soluble	CCCS(=O)(=O)Nc1ccc(F)c(C(=O)c2c[nH]c3ncc(-c4cnc(C)nc4)cc23)c1F
Insoluble	Insoluble	Insoluble	Insoluble	C#Cc1cnc2[nH]cc(C(=O)c3c(F)ccc(NS(=O)(=O)CCC)c3F)c2c1
Soluble	Soluble	Soluble	Soluble	N#Cc1ccnc2[nH]cc(C(=O)c3c(F)ccc(NS(=O)(=O)c4ccccc4F)c3F)c12
Soluble	Insoluble	Soluble	Insoluble	CCCS(=O)(=O)Nc1ccc(F)c(C(=O)c2c[nH]c3ncc(-c4ccc(C)nc4)cc23)c1F
Insoluble	Soluble	Insoluble	Insoluble	COc1ncc(-c2cnc3[nH]cc(C(=O)c4c(F)ccc(NS(=O)(=O)c5cccc(F)c5)c4F)c3c2)cn1
Insoluble	Soluble	Soluble	Insoluble	CCCS(=O)(=O)Nc1ccc(F)c(C(=O)c2c[nH]c3ncc(-c4cncc(S(C)(=O)=O)c4)cc23)c1F
Insoluble	Insoluble	Insoluble	Insoluble	CCCS(=O)(=O)Nc1ccc(F)c(C(=O)c2c[nH]c3ncc(-c4cnn(Cc5ccccc5)c4)cc23)c1F
Soluble	Soluble	Insoluble	Soluble	O=C(c1c(F)ccc(NS(=O)(=O)c2cccc(F)c2)c1F)c1c[nH]c2nccc(Cl)c12
Insoluble	Insoluble	Soluble	Insoluble	CCCS(=O)(=O)Nc1ccc(F)c(C(=O)c2c[nH]c3ncc(-c4cnc(N5CCCC5)nc4)cc23)c1F
Insoluble	Soluble	Soluble	Soluble	Cc1cnc2[nH]cc(C(=O)c3c(F)ccc(NS(=O)(=O)c4c(F)cccc4F)c3F)c2c1
Insoluble	Insoluble	Insoluble	Insoluble	CCCS(=O)(=O)Nc1cccc(C(=O)c2c[nH]c3ncc(-c4cnc(OC)nc4)cc23)c1F
Insoluble	Insoluble	Insoluble	Insoluble	CCCS(=O)(=O)Nc1ccc(F)c(C(=O)c2c[nH]c3ncc(-c4ccc(C#CCN(CC)CC)nc4)cc23)c1F
Soluble	Soluble	Soluble	Soluble	O=C(c1c(F)ccc(NS(=O)(=O)c2c(F)cccc2F)c1F)c1c[nH]c2ncc(Cl)cc12
Soluble	Soluble	Soluble	Soluble	O=C(c1c(F)ccc(NS(=O)(=O)c2cccnc2)c1F)c1c[nH]c2ncc(Cl)cc12
Insoluble	Insoluble	Insoluble	Insoluble	COc1ncc(-c2cnc3[nH]cc(C(=O)c4c(F)ccc(NS(=O)(=O)c5cc(F)ccc5F)c4F)c3c2)cn1
Insoluble	Insoluble	Soluble	Insoluble	CCCS(=O)(=O)Nc1ccc(F)c(C(=O)c2c[nH]c3ncc(-c4cnc(N(C)C)nc4)cc23)c1F
Soluble	Soluble	Soluble	Soluble	N#Cc1cnc2[nH]cc(C(=O)c3cccc(NS(=O)(=O)c4cccnc4)c3F)c2c1
Insoluble	Soluble	Insoluble	Soluble	N#Cc1cnc2[nH]cc(C(=O)c3cccc(NS(=O)(=O)c4cc(F)ccc4F)c3F)c2c1

solubility [1]	solubility [2]	solubility [3]	solubility [4]	Structure (SMILES)
Insoluble	Insoluble	Insoluble	Insoluble	CCCS(=O)(=O)Nc1ccc(F)c(C(=O)c2c[nH]c3ncc(-c4ccc(S(N)(=O)=O)cc4)cc23)c1F
Soluble	Soluble	Soluble	Soluble	Cc1cnc2[nH]cc(C(=O)c3c(F)ccc(NS(=O)(=O)c4cccnc4)c3F)c2c1
Insoluble	Insoluble	Soluble	Insoluble	CCCS(=O)(=O)Nc1ccc(F)c(C(=O)c2c[nH]c3ncc(-c4cnc(N5CCOCC5)nc4)cc23)c1F
Insoluble	Insoluble	Insoluble	Insoluble	CCCS(=O)(=O)Nc1ccc(F)c(C(=O)c2c[nH]c3ncc(-c4cn[nH]c4)cc23)c1F
Insoluble	Insoluble	Insoluble	Insoluble	CCCS(=O)(=O)Nc1ccc(F)c(C(=O)c2c[nH]c3ncc(-c4ccc(OC)nc4OC)cc23)c1F
Insoluble	Soluble	Insoluble	Soluble	N#Cc1cnc2[nH]cc(C(=O)c3cccc(NS(=O)(=O)c4cccc(F)c4)c3F)c2c1
Insoluble	Soluble	Insoluble	Insoluble	COc1ncc(-c2cnc3[nH]cc(C(=O)c4c(F)ccc(NS(=O)(=O)c5c(F)cccc5F)c4F)c3c2)cn1
Insoluble	Insoluble	Insoluble	Insoluble	CCCS(=O)(=O)Nc1ccc(F)c(C(=O)c2c[nH]c3ncc(-c4ccnc(F)c4)cc23)c1F
Insoluble	Insoluble	Insoluble	Insoluble	CCCS(=O)(=O)Nc1cccc(C(=O)c2c[nH]c3ncc(-c4cnc(N(C)C)nc4)cc23)c1F
Insoluble	Soluble	Soluble	Soluble	Cc1cnc2[nH]cc(C(=O)c3c(F)ccc(NS(=O)(=O)c4cccc(F)c4)c3F)c2c1
Insoluble	Insoluble	Insoluble	Insoluble	CCCS(=O)(=O)Nc1ccc(F)c(C(=O)c2c[nH]c3ncc(-c4ccc(S(=O)(=O)NC5CC5)cc4)cc23)c1F
Soluble	Soluble	Soluble	Soluble	N#Cc1cnc2[nH]cc(C(=O)c3cccc(NS(=O)(=O)c4ccccc4F)c3F)c2c1
Insoluble	Insoluble	Insoluble	Insoluble	CCCS(=O)(=O)Nc1ccc(F)c(C(=O)c2c[nH]c3ncc(-c4ccc(S(C)(=O)=O)cc4)cc23)c1F
Soluble	Soluble	Soluble	Soluble	O=C(c1c(F)ccc(NS(=O)(=O)c2ccccc2F)c1F)c1c[nH]c2nccc(Cl)c12
Insoluble	Insoluble	Insoluble	Insoluble	CCCS(=O)(=O)Nc1ccc(F)c(C(=O)c2c[nH]c3ncc(-c4ccc(C(=O)NC)nc4)cc23)c1F
Insoluble	Insoluble	Insoluble	Insoluble	CCCS(=O)(=O)Nc1ccc(F)c(C(=O)c2c[nH]c3ncc(-c4ccc(C(=O)NCC)nc4)cc23)c1F
Soluble	Insoluble	Soluble	Insoluble	CCCS(=O)(=O)Nc1ccc(F)c(C(=O)c2c[nH]c3ncc(-c4ccc(OCCCN5CCOCC5)nc4)cc23)c1F
Soluble	Soluble	Insoluble	Soluble	O=C(c1c(F)ccc(NS(=O)(=O)c2cc(F)ccc2F)c1F)c1c[nH]c2nccc(Cl)c12
Soluble	Soluble	Soluble	Soluble	N#Cc1cnc2[nH]cc(C(=O)c3c(F)ccc(NS(=O)(=O)c4ccccc4F)c3F)c2c1
Insoluble	Soluble	Insoluble	Soluble	COc1cnc2[nH]cc(C(=O)c3c(F)ccc(NS(=O)(=O)c4cc(F)ccc4F)c3F)c2c1
Insoluble	Soluble	Insoluble	Insoluble	COc1cnc2[nH]cc(C(=O)c3c(F)ccc(NS(=O)(=O)c4ccccc4F)c3F)c2c1
Insoluble	Insoluble	Insoluble	Insoluble	CCCS(=O)(=O)Nc1ccc(F)c(C(=O)c2c[nH]c3ncc(-c4ccc(S(=O)(=O)N(C)C)cc4)cc23)c1F
